Laboratory results taken from US8455534B2, “Estrogen receptor modulators and uses thereof” (Aragon Pharmaceuticals, Inc., priority 2010, dated 2013).

Tests used:
MCF-7 cells = test: Breast Cancer Cell Viability Assay (MCF-7, CellTiter-Glo); type: cell-based; conditions: 5 days' compound exposure; for IC50: Homo sapiens, MCF7, 120 h
Summary of the method: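 MCF-7 cells, 320 per well in RPMI with 10% FBS and 20 mM HEPES, adhered overnight, then exposed 5 days to an eleven-point semilog dilution (final 0.3-0.000003 μM). CellTiter-Glo luminescence read; % viability = (sample − cell-free background)/(untreated − background) × 100.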

ER-α = target: T1, ER-α (Homo sapiens, UniProt P03372); test: Breast Cancer Cell ER-α In Cell Western Assay (SP1); type: cell-based; conditions: MCF-7 cells, SP1 antibody, 4 or 24 hr post compound addition; for Emax: MCF7, read-out: ER-α In Cell Western Assay (SP1) Max Response; for DC50: read-out: ER-α In Cell Western Assay (SP1) IC50
T1 sequence (P03372 1-595): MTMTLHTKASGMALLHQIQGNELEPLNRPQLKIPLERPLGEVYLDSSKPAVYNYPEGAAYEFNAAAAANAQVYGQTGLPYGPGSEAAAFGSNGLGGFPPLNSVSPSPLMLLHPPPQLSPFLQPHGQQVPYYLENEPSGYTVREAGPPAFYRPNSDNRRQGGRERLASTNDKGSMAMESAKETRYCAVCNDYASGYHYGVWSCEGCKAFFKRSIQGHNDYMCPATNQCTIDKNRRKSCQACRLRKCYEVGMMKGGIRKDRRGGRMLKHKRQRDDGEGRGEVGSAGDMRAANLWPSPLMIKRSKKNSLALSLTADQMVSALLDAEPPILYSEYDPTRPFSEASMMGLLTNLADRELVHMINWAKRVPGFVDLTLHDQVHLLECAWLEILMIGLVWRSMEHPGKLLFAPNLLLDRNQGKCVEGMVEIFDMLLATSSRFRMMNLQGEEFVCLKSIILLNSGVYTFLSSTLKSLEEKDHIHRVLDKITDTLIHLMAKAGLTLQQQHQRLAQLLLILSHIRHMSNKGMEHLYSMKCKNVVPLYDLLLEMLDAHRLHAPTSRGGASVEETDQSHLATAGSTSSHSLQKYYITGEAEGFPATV
Summary of the method: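 ER-α protein levels measured by in-cell western with SP1 antibody, ratioed to DRAQ5 DNA signal and given as percent of untreated controls. Compounds added at 0.3–0.000003 μM final (eleven semilog points) to adherent MCF-7 cells in stripped serum; exposure 4 or 24 h before fixation.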

Row | IC50 (MCF-7 cells) | Emax (ER-α) | DC50 (ER-α) | Structure (SMILES) | MCF7 Viability Assay Max Response (MCF-7 cells)
1 | ≤ 100 nM | ≥ 40% |  | CC/C(=C(/c1ccc(/C=C/C(=O)O)c(C)c1)c1ccc2[nH]ncc2c1)c1ccccc1 [Compound 101, (E)-3-(4-((E)-1-(1H-Indazol-5-yl)-2-phenylbut-1-en-1-yl)-2-methylphenyl)acrylic acid] | ++ (++ = a single % value ≧ 40%)
2 | ≤ 100 nM | ≥ 40% | ≤ 100 nM | O=C(O)/C=C/c1ccc(/C(=C(\c2ccccc2)C2CCC2)c2ccc3[nH]ncc3c2)cc1 [Compound 84, (E)-3-(4-((E)-2-Cyclobutyl-1-(1H-indazol-5-yl)-2-phenylvinyl)phenyl)acrylic acid] | ++ (++ = a single % value ≧ 40%)
3 | ≤ 100 nM | ≥ 40% |  | CC/C(=C(/c1ccc(/C=C/C(=O)O)cc1)c1ccc2[nH]ncc2c1)c1ccc(C#N)cc1Cl [Compound 140, (E)-3-(4-((E)-2-(2-Chloro-4-cyanophenyl)-1-(1H-indazol-5-yl)but-1-en-1-yl)phenyl)acrylic acid] | ++ (++ = a single % value ≧ 40%)
4 | > 100 nM | ≥ 40% | > 100 nM | O=C(O)/C=C/c1ccc(/C(=C(/CCO)c2ccccc2)c2ccc3[nH]ncc3c2)cc1 [Compound 46, (E)-3-(4-((E)-4-Hydroxy-1-(1H-indazol-5-yl)-2-phenylbut-1-en-1-yl)phenyl)acrylic acid] | + (+ = a single % value < 40%)
5 | ≤ 100 nM | ≥ 40% | ≤ 100 nM | O=C(O)/C=C/c1ccc(/C(=C(/CCF)c2ccc(F)cc2Cl)c2ccc3[nH]ncc3c2)cc1 [Compound 120, (E)-3-(4-((E)-2-(2-Chloro-4-fluorophenyl)-4-fluoro-1-(1H-indazol-5-yl)but-1-en-1-yl)phenyl)acrylic acid] | ++ (++ = a single % value ≧ 40%)
6 | ≤ 100 nM | ≥ 40% |  | CC/C(=C(\c1ccc2[nH]ncc2c1)c1ccc(/C=C/C(=O)O)cc1C)c1ccccc1 [Compound 100, (E)-3-(4-((Z)-1-(1H-Indazol-5-yl)-2-phenylbut-1-en-1-yl)-3-methylphenyl)acrylic acid] | ++ (++ = a single % value ≧ 40%)
7 | ≤ 100 nM | ≥ 40% | ≤ 100 nM | CC/C(=C(/c1ccc(/C=C/C(=O)O)cc1)c1ccc2[nH]ncc2c1Cl)c1ccc(F)cc1Cl [Compound 73, (E)-3-(4-((E)-1-(4-Chloro-1H-indazol-5-yl)-2-(2-chloro-4-fluorophenyl)but-1-en-1-yl)phenyl)acrylic acid] | ++ (++ = a single % value ≧ 40%)
8 | ≤ 100 nM | ≥ 40% | ≤ 100 nM | CC/C(=C(/c1ccc(/C=C/C(=O)O)cc1)c1cc2cn[nH]c2cc1Cl)c1ccccc1 [Compound 50, (E)-3-(4-((E)-1-(6-Chloro-1H-indazol-5-yl)-2-phenylbut-1-en-1-yl)phenyl)acrylic acid] | ++ (++ = a single % value ≧ 40%)
9 | ≤ 100 nM | ≥ 40% | ≤ 100 nM | CC/C(=C(/c1ccc(/C=C/C(=O)O)cc1)c1ccc2[nH]ncc2c1)c1ccc(OC)cc1F [Compound 129, (E)-3-(4-((E)-2-(2-Fluoro-4-methoxyphenyl)-1-(1H-indazol-5-yl)but-1-en-1-yl)phenyl)acrylic acid] | ++ (++ = a single % value ≧ 40%)
10 | ≤ 100 nM | ≥ 40% | ≤ 100 nM | CC/C(=C(/c1ccc(/C=C/C(=O)O)cc1)c1ccc2[nH]ncc2c1)c1ccc(F)cc1F [Compound 22, (E)-3-(4-((E)-2-(2,4-Difluorophenyl)-1-(1H-indazol-5-yl)but-1-en-1-yl)phenyl)acrylic acid] | ++ (++ = a single % value ≧ 40%)
11 | ≤ 100 nM | ≥ 40% | ≤ 100 nM | CC/C(=C(/c1ccc(/C=C/C(=O)O)cc1)c1ccc2[nH]ncc2c1)c1ccccc1C(F)(F)F [Compound 19, (E)-3-(4-((E)-1-(1H-Indazol-5-yl)-2-(2-(trifluoromethyl)phenyl)but-1-en-1-yl)phenyl)acrylic acid] | ++ (++ = a single % value ≧ 40%)
12 | ≤ 100 nM | ≥ 40% | ≤ 100 nM | CC/C(=C(/c1ccc(/C=C/C(=O)O)cc1)c1ccc2[nH]ncc2c1)c1ccc(OC)cc1 [Compound 13, (E)-3-(4-((E)-1-(1H-Indazol-5-yl)-2-(4-methoxyphenyl)but-1-en-1-yl)phenyl)acrylic acid] | ++ (++ = a single % value ≧ 40%)
13 | > 100 nM | ≥ 40% | ≤ 100 nM | CC/C(=C(/c1ccc(/C=C/C(=O)O)cc1)c1ccc2[nH]ncc2c1)c1ccccc1CO [Compound 8, (E)-3-(4-((E)-2-(2-(Hydroxymethyl)phenyl)-1-(1H-indazol-5-yl)but-1-en-1-yl)phenyl)acrylic acid] | ++ (++ = a single % value ≧ 40%)
14 | ≤ 100 nM | ≥ 40% |  | CC/C(=C(/c1ccc(/C=C/C(=O)O)cc1)c1ccc2[nH]ncc2c1)c1ccccc1OC [Compound 12, (E)-3-(4-((E)-1-(1H-Indazol-5-yl)-2-(2-methoxyphenyl)but-1-en-1-yl)phenyl)acrylic acid] | ++ (++ = a single % value ≧ 40%)
15 | ≤ 100 nM | ≥ 40% | ≤ 100 nM | COC/C(=C(/c1ccc(/C=C/C(=O)O)cc1)c1ccc2[nH]ncc2c1)c1ccccc1 [Compound 48, (E)-3-(4-((Z)-1-(1H-Indazol-5-yl)-3-methoxy-2-phenylprop-1-en-1-yl)phenyl)acrylic acid] | ++ (++ = a single % value ≧ 40%)
16 | ≤ 100 nM | ≥ 40% | ≤ 100 nM | CC/C(=C(/c1ccc(/C=C(\C)C(=O)O)cc1)c1ccc2[nH]ncc2c1)c1ccccc1 [Compound 99, (E)-3-(4-((E)-1-(1H-Indazol-5-yl)-2-phenylbut-1-en-1-yl)phenyl)-2-methylacrylic acid] | ++ (++ = a single % value ≧ 40%)
17 | > 100 nM | ≥ 40% | > 100 nM | CC/C(=C(/c1ccc(/C=C/C(=O)O)cc1)c1ccc2[nH]ncc2c1)c1ccc(S(C)(=O)=O)cc1F [Compound 131, (E)-3-(4-((E)-2-(2-Fluoro-4-(methylsulfonyl)phenyl)-1-(1H-indazol-5-yl)but-1-en-1-yl)phenyl)acrylic acid] | ++ (++ = a single % value ≧ 40%)
18 | ≤ 100 nM | ≥ 40% | ≤ 100 nM | CC/C(=C(/c1ccc(/C=C/C(=O)O)cc1)c1ccc2[nH]ncc2c1)c1ccc(F)cc1C#N [Compound 138, (E)-3-(4-((E)-2-(2-Cyano-4-fluorophenyl)-1-(1H-indazol-5-yl)but-1-en-1-yl)phenyl)acrylic acid] | ++ (++ = a single % value ≧ 40%)
19 | ≤ 100 nM | ≥ 40% |  | CC/C(=C(/c1ccc(/C=C/C(=O)O)c(OC)c1)c1ccc2[nH]ncc2c1)c1ccccc1 [Compound 109, (E)-3-(4-((Z)-1-(1H-Indazol-5-yl)-2-phenylbut-1-en-1-yl)-2-methoxyphenyl)acrylic acid] | ++ (++ = a single % value ≧ 40%)
20 | ≤ 100 nM | ≥ 40% | ≤ 100 nM | CC/C(=C(/c1ccc(/C=C/C(=O)O)cc1)c1ccc2[nH]ncc2c1)c1ccc(OC)cc1C#N [Compound 144, (E)-3-(4-((E)-2-(2-Cyano-4-methoxyphenyl)-1-(1H-indazol-5-yl)but-1-en-1-yl)phenyl)acrylic acid] | ++ (++ = a single % value ≧ 40%)
21 | ≤ 100 nM | ≥ 40% | ≤ 100 nM | CC(C)C/C(=C(/c1ccc(/C=C/C(=O)O)cc1)c1ccc2[nH]ncc2c1)c1ccccc1 [Compound 51, (E)-3-(4-((E)-1-(1H-Indazol-5-yl)-4-methyl-2-phenylpent-1-en-1-yl)phenyl)acrylic acid] | ++ (++ = a single % value ≧ 40%)

Row | Structure (SMILES) | IC50 (MCF-7 cells) | Emax (ER-α) | DC50 (ER-α) | MCF7 Viability Assay Max Response (MCF-7 cells)
22 | CCCCOc1ccc(/C(CC)=C(\c2ccc(/C=C/C(=O)O)cc2)c2ccc3[nH]ncc3c2)cc1 [Compound 97, (E)-3-(4-((E)-2-(4-Butoxyphenyl)-1-(1H-indazol-5-yl)but-1-en-1-yl)phenyl)acrylic acid] | ≤ 100 nM | ≥ 40% | ≤ 100 nM | ++ (++ = a single % value ≧ 40%)
